These results are taken from patent US20180258123A1, “Suppressors of Premature Termination Codons as Therapeutics and Methods for Their Use” (The University of British Columbia, priority 2015, published 2018).

For series [1] the following is noted: cited from earlier work.
Series [2] has as its system HDQ-P1 cells, full-length p53. The series can be described thus: p53 read-through assay with steroids (western blotting, FIG. 4). Type of series: cell-based, human. The protocol:
HDQ-P1 cells were seeded at 100,000 cells per well of TC-treated 6-well plates. The next day, the medium was replaced with fresh medium containing compounds to be tested and were incubated for 48 to 96 h. The medium was removed by aspiration, cell monolayers were rinsed with 1 ml ice-cold PBS. Cells were lysed in 80 μl lysis buffer (20 mM Tris-HCl pH 7.5, 150 mM NaCl, 1 mM EDTA, 1 mM EGTA, 1% (v/v) Triton […], 2.5 mM sodium pyrophosphate, 1 mM beta-glycerophosphate supplemented with fresh 1 mM Na3VO4, 1 mM dithiothreitol and 1× complete protease inhibitor cocktail (Roche Molecular BiochemicalsTM)). Lysates were pre-cleared by centrifugation at 18,000 g for 15 min at 4° C. Supernatants were collected, protein was quantitated using the Bradford assay and lysates were adjusted to 1 mg/ml protein. Capillary electrophoresis and western analysis conditions were carried out with manufacturer's reagents according to the user manual (ProteinSimple WESTM). Briefly, 5.6 μl of cell lysate was mixed with 1.4 μl fluorescent master mix and heated at 95° C. for 5 min. The samples, blocking reagent, wash buffer, DO-1 p53 antibody (0.5 μg/ml) and vinculin antibody (1:2000, R&D clone 728526), secondary antibody and chemiluminescent substrate were dispensed into the microplate provided by the manufacturer. […] The data was analyzed with inbuilt CompassTM software (ProteinsimpleTM). […]

Series [3] is described as follows: Toxicity observed in the in vivo read-through study. As to conditions: 400 mg/kg intraperitoneal; mice sacrificed shortly after administration.
Method: Methods for FIG. 8: Two million NCI-H1299 human non-small cell lung carcinoma cells stably expressing a TP53 expression construct bearing the R213X (TGA) nonsense mutation were implanted subcutaneously on the lower back of immunocompromised NRG (NOD-Rag1^null IL2rg^null) mice. […] 48 hours after the last injection, the mice were sacrificed and the amounts of truncated p53 and full-length p53 were determined by western analysis. […] Vinculin was used as a protein loading control.

For the compound `CN[C@@H]1[C@@H](O)[C@@H](O[C@@H]2[C@@H](O)[C@H](O[C@H]3O[C@H]([C@@H](C)N)CC[C@H]3N)[C@@H](N)C[C@H]2N)OC[C@]1(C)O` [Gentamicin C2], the “nephrotoxicity of the major gentamicins” value in series [1] (Kohlhepp S. J. et al. 1984) is “nephrotoxicity was caused mainly by C2”.
With `CC(=O)O[C@]1(C(C)=O)CC[C@H]2[C@@H]3C[C@H](C)C4=CC(=O)CC[C@]4(C)[C@H]3CC[C@@]21C` [Medroxy pro, Medroxyprogesterone acetate], the “read-through activity of steroid alone” value in series [2] is “no read-through activity”.
For Gentamicin [reference compound], the nephrotoxicity and ototoxicity entry in series [1] (in vivo) was “nephrotoxic and ototoxic”. Besides, in series [3], the toxicity result is on record as “induced acute toxicity”.
